According to ChEMBL document CHEMBL1201862, “PubChem BioAssay data set” (2004):
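In this assay, cells in 96-well plates receive the compound at five concentrations for 48 hours. Endpoints are linearly interpolated between the surrounding concentrations. Here, GI50 denotes the concentration required for 50% inhibition of growth.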 Calls of active or inactive are those of the source. Rule as the data show it: active = GI50 up to about 1.1 µM and inactive = higher.

Key:
Experiment in all cases: NCI-60 cell line screen, 48 h
SK-MEL-2 = system: SK-MEL-2
RPMI-8226 = system: RPMI-8226
SF-539 = system: SF-539
NCI-H460 = system: NCI-H460
SNB-19 = system: SNB-19
HOP-92 = system: HOP-92
HCT-15 = system: HCT-15
CAKI-1 = system: CAKI-1
HCT-116 = system: HCT-116
RXF 393 = system: RXF 393
SF-295 = system: SF-295
NCI-H522 = system: NCI-H522
NCI-H226 = system: NCI-H226
MDA-MB-435 = system: MDA-MB-435
ACHN = system: ACHN
U-251 = system: U-251
Malme-3M = system: Malme-3M
M14 = system: M14
OVCAR-4 = system: OVCAR-4
UO-31 = system: UO-31

Row | Compound | GI50 (SK-MEL-2) | GI50 (RPMI-8226) | GI50 (SF-539) | GI50 (NCI-H460) | GI50 (SNB-19) | GI50 (HOP-92) | GI50 (HCT-15) [µM] | GI50 (CAKI-1) | GI50 (HCT-116) | GI50 (RXF 393) | GI50 (SF-295) | GI50 (NCI-H522) | GI50 (NCI-H226) | GI50 (MDA-MB-435) | GI50 (ACHN) | GI50 (U-251) | GI50 (Malme-3M) | GI50 (M14) | GI50 (OVCAR-4) | GI50 (UO-31)
1 | COc1cccc(OCC(=N/NC(=O)c2ccncc2)/N=C/c2cccnc2)c1 | > 100 µM (inactive) | 68.2 µM (inactive) | > 100 µM (inactive) | > 100 µM (inactive) | > 100 µM (inactive) | 21 µM (inactive) | > 100 | > 100 µM (inactive) | > 100 µM (inactive) | > 100 µM (inactive) | > 100 µM (inactive) | > 100 µM (inactive) | > 100 µM (inactive) | > 100 µM (inactive) | > 100 µM (inactive) | > 100 µM (inactive) | > 100 µM (inactive) | > 100 µM (inactive) | > 100 µM (inactive) | 
2 | COC1(OC)CC(CO)(CNc2nc(N)nc(Cl)c2/C=N\O)C1 |  | 13.6 µM (inactive) | 38.8 µM (inactive) | 37.4 µM (inactive) | 40.7 µM (inactive) | 13.6 µM (inactive) | 75.5 | 57.4 µM (inactive) | 50.4 µM (inactive) | 18.7 µM (inactive) | 33.3 µM (inactive) | 6.67 µM (inactive) | 29.6 µM (inactive) | 31.5 µM (inactive) | 24.6 µM (inactive) | 43.7 µM (inactive) | 20.8 µM (inactive) |  | 29.5 µM (inactive) | 39.2 µM (inactive)
3 | CCOC(=O)C1C(=O)CC(C)(O)C(C(=O)OCC)C1c1ccc(N(C)C)cc1 (stereo not given) | > 100 µM (inactive) |  |  | > 100 µM (inactive) | > 100 µM (inactive) | > 100 µM (inactive) | > 100 | > 100 µM (inactive) | > 100 µM (inactive) | > 100 µM (inactive) | > 100 µM (inactive) | > 100 µM (inactive) | > 100 µM (inactive) | > 100 µM (inactive) | > 100 µM (inactive) | > 100 µM (inactive) | > 100 µM (inactive) |  | > 100 µM (inactive) | > 100 µM (inactive)
4 | O=C(Nc1nc(C23CC4CC(CC(C4)C2)C3)cs1)c1c(O)c2ccccc2[nH]c1=O |  | > 100 µM (inactive) | > 100 µM (inactive) | > 100 µM (inactive) | > 100 µM (inactive) | > 100 µM (inactive) | > 100 | > 100 µM (inactive) | > 100 µM (inactive) | 53.6 µM (inactive) | > 100 µM (inactive) | > 100 µM (inactive) | > 100 µM (inactive) | > 100 µM (inactive) | > 100 µM (inactive) | > 100 µM (inactive) | > 100 µM (inactive) |  | 60.5 µM (inactive) | > 100 µM (inactive)
5 | COc1c(O)cc2c3c(ccnc13)NC=C2 | 57.9 µM (inactive) | > 100 µM (inactive) |  | > 100 µM (inactive) | > 100 µM (inactive) | > 100 µM (inactive) | > 100 | > 100 µM (inactive) | 76.9 µM (inactive) | 18.1 µM (inactive) | > 100 µM (inactive) | 1.63 µM (inactive) | > 100 µM (inactive) | > 100 µM (inactive) | 55.7 µM (inactive) | 80.2 µM (inactive) | 85.7 µM (inactive) | > 100 µM (inactive) | > 100 µM (inactive) | 36.8 µM (inactive)
6 | CC[C@@]1(C)CCC2c3ccc(O)cc3CC[C@H]2C1C (stereo not given in full) | 18.6 µM (inactive) | 19.4 µM (inactive) | 19.9 µM (inactive) | 22.7 µM (inactive) | 17.5 µM (inactive) | 6.85 µM (inactive) | 16 | 21.2 µM (inactive) | 17.7 µM (inactive) | 13 µM (inactive) | 18.8 µM (inactive) | 19.3 µM (inactive) |  | 15.6 µM (inactive) | 18.2 µM (inactive) | 17 µM (inactive) | 16.6 µM (inactive) | 15.7 µM (inactive) | 19.4 µM (inactive) | 16.7 µM (inactive)
7 | N#C/C(=C\c1cn(Cc2ccccc2)c2ccccc12)c1nn(-c2ccccc2)c(N)c1C#N | 4.65 µM (inactive) | 19.8 µM (inactive) | 3.11 µM (inactive) | 12 µM (inactive) | 13.6 µM (inactive) | 8.41 µM (inactive) | 31.1 | 17.4 µM (inactive) | 16.4 µM (inactive) | 4.81 µM (inactive) | 11.1 µM (inactive) | 13.2 µM (inactive) |  | 20.6 µM (inactive) | 18.7 µM (inactive) | 13.6 µM (inactive) | 21.4 µM (inactive) | 20.4 µM (inactive) | 3.24 µM (inactive) | 12.9 µM (inactive)
8 | CS(=O)(=O)CCC1CCC(=O)O1 (stereo not given) |  | > 100 µM (inactive) | > 100 µM (inactive) | 69.5 µM (inactive) | > 100 µM (inactive) | > 100 µM (inactive) | > 100 | > 100 µM (inactive) | 48.6 µM (inactive) | 49.2 µM (inactive) | 92.9 µM (inactive) | 31.2 µM (inactive) | > 100 µM (inactive) | > 100 µM (inactive) | 31.5 µM (inactive) | > 100 µM (inactive) | > 100 µM (inactive) | > 100 µM (inactive) |  | > 100 µM (inactive)
9 | O=S(=O)(O)c1cc(/N=N/c2cc(S(=O)(=O)O)c3ccccc3c2O)ccc1/C=C/c1ccc(/N=N/c2cc(S(=O)(=O)O)c3ccccc3c2O)cc1S(=O)(=O)O | > 371 µM (inactive) |  | > 386 µM (inactive) | > 437 µM (inactive) | > 733 µM (inactive) | > 80.9 µM (inactive) | 98.6 | > 574 µM (inactive) | > 213 µM (inactive) | > 771 µM (inactive) | > 462 µM (inactive) | > 492 µM (inactive) | 270 µM (inactive) | 111 µM (inactive) | > 483 µM (inactive) | > 716 µM (inactive) | > 333 µM (inactive) | 131 µM (inactive) | > 86.5 µM (inactive) | > 367 µM (inactive)
10 | N/C1=C/C(=O)NC(=O)c2c(c3ccccc3oc2=O)C1 | > 100 µM (inactive) | 62.8 µM (inactive) |  | > 100 µM (inactive) | > 100 µM (inactive) | > 100 µM (inactive) | > 100 | > 100 µM (inactive) | > 100 µM (inactive) | > 100 µM (inactive) |  | > 100 µM (inactive) | > 100 µM (inactive) | > 100 µM (inactive) | > 100 µM (inactive) | > 100 µM (inactive) | > 100 µM (inactive) | > 100 µM (inactive) | > 100 µM (inactive) | > 100 µM (inactive)
11 | OCc1ccccc1O[C@H]1O[C@H](CO)[C@@H](O)[C@H](O)[C@H]1O | > 100 µM (inactive) | > 100 µM (inactive) | > 100 µM (inactive) | > 100 µM (inactive) |  | > 100 µM (inactive) | > 100 | > 100 µM (inactive) | > 100 µM (inactive) | > 100 µM (inactive) | > 100 µM (inactive) | > 100 µM (inactive) | > 100 µM (inactive) | > 100 µM (inactive) | > 100 µM (inactive) | > 100 µM (inactive) | > 100 µM (inactive) | > 100 µM (inactive) | > 100 µM (inactive) | > 100 µM (inactive)
12 | COc1ccc(N2C(=O)/C(=C\c3cccc(Oc4ccccc4)c3)S(=O)(=O)C2c2ccccc2)cc1 (stereo not given) | 37.2 µM (inactive) |  |  | 36.7 µM (inactive) | 47 µM (inactive) | 42.2 µM (inactive) | 21 | 68.4 µM (inactive) | 20.4 µM (inactive) | 17.1 µM (inactive) |  | 12.3 µM (inactive) | 64.7 µM (inactive) | 19.8 µM (inactive) | 98.9 µM (inactive) | 50.7 µM (inactive) | 24.4 µM (inactive) | 38.8 µM (inactive) | 28.6 µM (inactive) | 53.6 µM (inactive)
13 | CCC1c2[nH]c3ccccc3c2C[C@H]2C(=O)NC(Cc3ccccc3)C(=O)N12 (stereo not given in full) | 20.9 µM (inactive) | 20.2 µM (inactive) |  |  | 34.9 µM (inactive) | 34.2 µM (inactive) | 35 | 35.4 µM (inactive) | 24.7 µM (inactive) | 22.1 µM (inactive) | 24.4 µM (inactive) | 22.9 µM (inactive) | 28.4 µM (inactive) | 20.2 µM (inactive) | 30.5 µM (inactive) | 22.8 µM (inactive) | 19.7 µM (inactive) | 27.9 µM (inactive) | 33.6 µM (inactive) | 30.8 µM (inactive)
14 | O=C(CN1C(=O)c2ccccc2C1=O)C(O)CN1C(=O)c2ccccc2C1=O (stereo not given) | > 100 µM (inactive) | > 100 µM (inactive) | 33.2 µM (inactive) | > 100 µM (inactive) | 50.7 µM (inactive) | 32.4 µM (inactive) | 92.5 | > 100 µM (inactive) | > 100 µM (inactive) | 34.4 µM (inactive) | 31.3 µM (inactive) | > 100 µM (inactive) | 73.8 µM (inactive) | 34.1 µM (inactive) | 20 µM (inactive) | 29.1 µM (inactive) |  | > 100 µM (inactive) | 98.4 µM (inactive) | 73.3 µM (inactive)
15 | O=C(CSC1=NC(=O)C2(NN1)c1ccccc1-c1ccccc12)NC(=S)Nc1ccccc1 |  | 9.04 µM (inactive) | > 10 µM (inactive) | > 10 µM (inactive) | > 10 µM (inactive) | > 10 µM (inactive) | > 10 | > 10 µM (inactive) | > 10 µM (inactive) | > 10 µM (inactive) | > 10 µM (inactive) | 7.03 µM (inactive) | 8.2 µM (inactive) | > 10 µM (inactive) | 1.81 µM (inactive) |  | > 10 µM (inactive) | > 10 µM (inactive) | > 10 µM (inactive) | 4.7 µM (inactive)
